Key:
[1] = tested on: PBCEC monolayer; test: Transfer across PBCEC monolayer on Transwell filters (BBB model); type: in vitro ADME, porcine
[2] = design: method as in PMID 24239892; details: pigs, cited from earlier work
[3] = design: method as in PMID 25757886; details: ex vivo human skin; cited from earlier work

Row | Structure (SMILES) | metabolites by high resolution mass spectrometry screening [1] | Tmax ([2]; oral) | ka ([2]; oral) | oral bioavailability [2] | permeation kp,v [3]
1 | CC[C@H](C)[C@H]1C(=O)O[C@H](C(C)C)C(=O)N(C)[C@@H](C(C)C)C(=O)O[C@H](C(C)C)C(=O)N(C)[C@@H](C(C)C)C(=O)O[C@H](C(C)C)C(=O)N1C [ENN B1, enniatin B1] | no metabolites were detected | 14.4 min | 4.66 h⁻¹ | up to 91% | –
2 | CC(C)[C@H]1C(=O)O[C@H](C(C)C)C(=O)N(C)[C@@H](C(C)C)C(=O)O[C@H](C(C)C)C(=O)N(C)[C@@H](C(C)C)C(=O)O[C@H](C(C)C)C(=O)N1C [ENN B, enniatin B] | – | – | – | – | 0.00262 ×10⁻⁶ cm/s
